As a reminder, the inhibition is the share of the control response that was lost under treatment. A high value points to strong suppression.

This passage reports inhibition results from article PMC9287138, “Proteasome activator 28γ (PA28γ) allosterically activates trypsin-like proteolysis by binding to the α-ring of the 20S proteasome” (The Journal of Biological Chemistry, 2022).

This assay has as its target T1, human 20S proteasome (H20S) (Homo sapiens, UniProt P28074+Q99436).
T1 construct: gene PSMB5; with Proteasome subunit beta type-6 (caspase-like site); Proteasome subunit alpha type-6; Proteasome subunit alpha type-2; Proteasome subunit alpha type-4; Proteasome subunit alpha type-7; Proteasome subunit alpha type-5; Proteasome subunit alpha type-1; Proteasome subunit alpha type-3; Proteasome subunit beta type-3; Proteasome subunit beta type-2; Proteasome subunit beta type-1; Proteasome subunit beta type-4
In words: inhibition of boc-RLR-AMC hydrolysis. It counts as biochemical.

With `CC(=O)N[C@@H](CC(C)C)C(=O)N[C@@H](CC(C)C)C(=O)N[C@H](C=O)CCCNC(=N)N` [leupeptin], the inhibition at 40 µM lay within 94 to 100%.
